Test results reported in article PMC5218480 (PLoS ONE, 2017).

Tested on: MV-4-11 cells
Assay: Gene expression microarray analysis (Affymetrix PrimeView) and GSEA
Format: cell-based, human
Design: RFU PODN (11730768_x_at) / Fold change /veh PODN (11730768_x_at) / RFU LINC00158 (11744669_a_at) / Fold change /veh LINC00158 (11744669_a_at) / RFU DUSP10 (11751237_a_at) / Fold change /veh DUSP10 (11751237_a_at) / RFU ID3 (11757404_x_at) / Fold change /veh ID3 (11757404_x_at) / RFU PLEKHG5 (11737974_s_at) / Fold change /veh PLEKHG5 (11737974_s_at) / RFU LRRC4B (11730491_at) / Fold change /veh LRRC4B (11730491_at) / RFU GIMAP4 (11747438_a_at) / Fold change /veh GIMAP4 (11747438_a_at) / RFU KRT8 (11758183_x_at) / Fold change /veh KRT8 (11758183_x_at) / RFU CNN1 (11734310_a_at) / Fold change /veh CNN1 (11734310_a_at) / RFU VPS37D (11726825_at) / Fold change /veh VPS37D (11726825_at) / RFU C10orf10 (11716522_x_at) / Fold change /veh C10orf10 (11716522_x_at) / RFU KIR2DL2 /// KIR2DL4 /// KIR2DL5A /// KIR2DL5B /// KIR2DS1 /// KIR2DS2 /// KIR2DS3 /// KIR2DS4 /// KIR3DL3 /// KIR3DL3 /// KIR3DS1 (11738374_at) / Fold change /veh KIR2DL2 /// KIR2DL4 /// KIR2DL5A /// KIR2DL5B /// KIR2DS1 /// KIR2DS2 /// KIR2DS3 /// KIR2DS4 /// KIR3DL3 /// KIR3DL3 /// KIR3DS1 (11738374_at) / RFU C1QL1 (11718748_at) / Fold change /veh C1QL1 (11718748_at) / RFU TMPRSS4 (11747572_a_at) / Fold change /veh TMPRSS4 (11747572_a_at) / RFU HAMP (11756126_x_at) / Fold change /veh HAMP (11756126_x_at) / RFU RNFT2 (11725882_a_at) / Fold change /veh RNFT2 (11725882_a_at) / RFU NR4A2 (11747474_a_at) / Fold change /veh NR4A2 (11747474_a_at) / RFU ABCC12 (11746883_a_at) / Fold change /veh ABCC12 (11746883_a_at) / RFU TMEM136 (11760407_x_at) / Fold change /veh TMEM136 (11760407_x_at) / RFU CLDN22 /// WWC2 (11732394_at) / Fold change /veh CLDN22 /// WWC2 (11732394_at) / RFU HLA-DPB1 (11760878_x_at) / Fold change /veh HLA-DPB1 (11760878_x_at) / RFU SPINT1 (11716480_a_at) / Fold change /veh SPINT1 (11716480_a_at) / RFU GAP43 (11754022_s_at) / Fold change /veh GAP43 (11754022_s_at) / RFU A4GNT (11735810_at) / Fold change /veh A4GNT (11735810_at) / RFU PRB3 (11715151_x_at) / Fold change /veh PRB3 (11715151_x_at) / RFU TUBB4B (11761932_at) / Fold change /veh TUBB4B (11761932_at) / RFU CAPN14 (11732068_a_at) / Fold change /veh CAPN14 (11732068_a_at) / RFU TMCC2 (11721928_a_at) / Fold change /veh TMCC2 (11721928_a_at) / RFU IRGQ (11745062_a_at) / Fold change /veh IRGQ (11745062_a_at) / RFU FAM174B (11720279_a_at) / Fold change /veh FAM174B (11720279_a_at) / RFU TMPRSS4 (11748680_a_at) / Fold change /veh TMPRSS4 (11748680_a_at) / RFU FAM212B (11763350_a_at) / Fold change /veh FAM212B (11763350_a_at) / RFU PLEKHG5 (11743358_a_at) / Fold change /veh PLEKHG5 (11743358_a_at) / RFU ZSCAN30 (11745921_a_at) / Fold change /veh ZSCAN30 (11745921_a_at) / RFU CMKLR1 (11741424_a_at) / Fold change /veh CMKLR1 (11741424_a_at) / RFU LOC101060620 /// MAPK8IP1 (11723275_at) / Fold change /veh LOC101060620 /// MAPK8IP1 (11723275_at) / RFU SPTSSB (11747773_x_at) / Fold change /veh SPTSSB (11747773_x_at) / RFU PRSS12 (11739890_at) / Fold change /veh PRSS12 (11739890_at) / RFU BIN1 (11741810_x_at) / Fold change /veh BIN1 (11741810_x_at) / RFU WNT11 (11732464_a_at) / Fold change /veh WNT11 (11732464_a_at) / RFU C10orf10 (11716521_a_at) / Fold change /veh C10orf10 (11716521_a_at) / RFU C5orf56 (11738089_at) / Fold change /veh C5orf56 (11738089_at) / RFU CYB561 (11721691_x_at) / Fold change /veh CYB561 (11721691_x_at) / RFU ANKRD19P (11752326_a_at) / Fold change /veh ANKRD19P (11752326_a_at) / RFU OR2T12 /// OR2T33 /// OR2T8 (11738714_s_at) / Fold change /veh OR2T12 /// OR2T33 /// OR2T8 (11738714_s_at) / RFU VCAN (11748164_a_at) / Fold change /veh VCAN (11748164_a_at) / RFU JSRP1 (11732532_at) / Fold change /veh JSRP1 (11732532_at) / RFU KRTAP10-11 (11738290_x_at) / Fold change /veh KRTAP10-11 (11738290_x_at) / RFU MYO3A (11730013_a_at) / Fold change /veh MYO3A (11730013_a_at) / RFU EBF3 (11725865_a_at) / Fold change /veh EBF3 (11725865_a_at) / RFU CAMK2N1 (11719241_x_at) / Fold change /veh CAMK2N1 (11719241_x_at) / RFU C5orf56 (11738088_a_at) / Fold change /veh C5orf56 (11738088_a_at) / RFU OLFML3 (11715873_a_at) / Fold change /veh OLFML3 (11715873_a_at) / RFU LOC100653217 /// NTM (11731650_a_at) / Fold change /veh LOC100653217 /// NTM (11731650_a_at) / RFU MAPK11 (11762145_a_at) / Fold change /veh MAPK11 (11762145_a_at) / RFU FIZ1 (11724087_x_at) / Fold change /veh FIZ1 (11724087_x_at) / RFU OASL (11726364_x_at) / Fold change /veh OASL (11726364_x_at) / RFU SOX15 (11748057_x_at) / Fold change /veh SOX15 (11748057_x_at) / RFU CD79A (11719716_a_at) / Fold change /veh CD79A (11719716_a_at) / RFU HIST1H1D (11736915_at) / Fold change /veh HIST1H1D (11736915_at) / RFU CASKIN2 (11723855_a_at) / Fold change /veh CASKIN2 (11723855_a_at) / RFU LOC730098 (11760151_x_at) / Fold change /veh LOC730098 (11760151_x_at) / RFU OR4N2 (11742367_at) / Fold change /veh OR4N2 (11742367_at) / RFU PRRT2 (11749266_a_at) / Fold change /veh PRRT2 (11749266_a_at) / RFU SNX32 (11753110_a_at) / Fold change /veh SNX32 (11753110_a_at) / RFU CDHR5 (11726645_a_at) / Fold change /veh CDHR5 (11726645_a_at) / RFU RCAN1 (11760418_a_at) / Fold change /veh RCAN1 (11760418_a_at) / RFU FAM167A (11723789_a_at) / Fold change /veh FAM167A (11723789_a_at) / RFU FAM26E (11764081_at) / Fold change /veh FAM26E (11764081_at) / RFU ISYNA1 (11749810_s_at) / Fold change /veh ISYNA1 (11749810_s_at) / RFU ACY1 (11761880_at) / Fold change /veh ACY1 (11761880_at) / RFU 11764098_at / Fold change /veh 11764098_at / RFU SAMD14 (11745864_x_at) / Fold change /veh SAMD14 (11745864_x_at) / RFU NPB (11741838_a_at) / Fold change /veh NPB (11741838_a_at) / RFU TMPRSS6 (11731388_a_at) / Fold change /veh TMPRSS6 (11731388_a_at) / RFU KRTAP10-2 (11738614_at) / Fold change /veh KRTAP10-2 (11738614_at) / RFU ARHGAP8 /// PRR5-ARHGAP8 (11727945_x_at) / Fold change /veh ARHGAP8 /// PRR5-ARHGAP8 (11727945_x_at) / RFU KRTAP5-7 /// NADSYN1 (11734609_at) / Fold change /veh KRTAP5-7 /// NADSYN1 (11734609_at) / RFU RASL12 (11751679_a_at) / Fold change /veh RASL12 (11751679_a_at) / RFU CDKN2B (11736163_a_at) / Fold change /veh CDKN2B (11736163_a_at) / RFU PRF1 (11729649_at) / Fold change /veh PRF1 (11729649_at) / RFU, ZNF638 /// ZNF638-IT1 / Fold change vs veh, ZNF638 /// ZNF638-IT1 / RFU, PANK3 / Fold change vs veh, PANK3 / RFU, SH3YL1 / Fold change vs veh, SH3YL1 / RFU, ZEB2 / Fold change vs veh, ZEB2 / RFU, NRIP1 / Fold change vs veh, NRIP1 / RFU, PTTG1IP / Fold change vs veh, PTTG1IP / RFU, CAPN2 / Fold change vs veh, CAPN2 / RFU, MED14 / Fold change vs veh, MED14 / RFU, SNORA58 / Fold change vs veh, SNORA58 / RFU, C1orf63 / Fold change vs veh, C1orf63 / RFU, LRRFIP1 / Fold change vs veh, LRRFIP1 / RFU, NDUFAF7 / Fold change vs veh, NDUFAF7 / RFU, SLC12A2 / Fold change vs veh, SLC12A2 / RFU, IBTK / Fold change vs veh, IBTK / RFU, ESF1 / Fold change vs veh, ESF1 / Fold change vs veh, TMEM50B / RFU, TAOK1 / Fold change vs veh, TAOK1 / RFU, ACBD3 / Fold change vs veh, ACBD3 / RFU, TMA16 / Fold change vs veh, TMA16 / RFU, RWDD3 / Fold change vs veh, RWDD3 / RFU, BCAT1 / Fold change vs veh, BCAT1 / RFU, EDEM3 / Fold change vs veh, EDEM3 / RFU, TMEM33 / Fold change vs veh, TMEM33 / RFU, WDR75 / Fold change vs veh, WDR75 / RFU, AHCTF1 / Fold change vs veh, AHCTF1 / RFU, TFRC / Fold change vs veh, TFRC / RFU, ZDHHC17 / Fold change vs veh, ZDHHC17 / RFU, NOM1 / Fold change vs veh, NOM1 / RFU, ARL8B / Fold change vs veh, ARL8B / RFU, ZBTB11 / Fold change vs veh, ZBTB11 / RFU, TAMM41 / Fold change vs veh, TAMM41 / RFU, KIAA1704 /// LOC100996395 / Fold change vs veh, KIAA1704 /// LOC100996395 / RFU, ING1 / Fold change vs veh, ING1 / RFU, TRMT61B / Fold change vs veh, TRMT61B / RFU, FUBP3 / Fold change vs veh, FUBP3 / RFU, TP53 / Fold change vs veh, TP53 / RFU, TNKS2 / Fold change vs veh, TNKS2 / RFU, ZFP14 / Fold change vs veh, ZFP14 / RFU, ACTR2 / Fold change vs veh, ACTR2 / RFU, PPP3R1 / Fold change vs veh, PPP3R1 / RFU, PIK3R1 / Fold change vs veh, PIK3R1 / RFU, HNRNPA1 / Fold change vs veh, HNRNPA1 / RFU, RNF170 / Fold change vs veh, RNF170 / RFU, ZNF28 / Fold change vs veh, ZNF28 / RFU, RNGTT / Fold change vs veh, RNGTT / RFU, OGT / Fold change vs veh, OGT / RFU, BRD1 / Fold change vs veh, BRD1 / RFU, MARS / Fold change vs veh, MARS / RFU, ZNF655 / Fold change vs veh, ZNF655 / RFU, FAHD1 / Fold change vs veh, FAHD1 / RFU, BDP1 / Fold change vs veh, BDP1 / RFU, LRRCC1 / Fold change vs veh, LRRCC1 / RFU, ARID1A / Fold change vs veh, ARID1A / RFU, ZNF146 / Fold change vs veh, ZNF146 / RFU, ZNF330 / Fold change vs veh, ZNF330 / RFU, GPN3 / Fold change vs veh, GPN3 / RFU, C9orf123 / Fold change vs veh, C9orf123 / RFU, N4BP2L2 / Fold change vs veh, N4BP2L2 / RFU, ARFIP1 / Fold change vs veh, ARFIP1 / RFU, FAM179B / Fold change vs veh, FAM179B / RFU, BCL10 / Fold change vs veh, BCL10 / RFU, UHRF1BP1L / Fold change vs veh, UHRF1BP1L / RFU, BET1 / Fold change vs veh, BET1 / RFU, CNOT2 / Fold change vs veh, CNOT2 / RFU, ZNF268 / Fold change vs veh, ZNF268 / Fold change vs veh, ZNF507 / RFU, DGCR2 / Fold change vs veh, DGCR2 / RFU, WDSUB1 / Fold change vs veh, WDSUB1 / Fold change vs veh, HSP90B1 /// MIR3652 / RFU, ADSS / Fold change vs veh, ADSS / RFU, GK / Fold change vs veh, GK / RFU, ZNF148 / Fold change vs veh, ZNF148 / RFU, TAF9 / Fold change vs veh, TAF9 / RFU, SLC1A5 / Fold change vs veh, SLC1A5 / RFU, SLMO2 / Fold change vs veh, SLMO2 / RFU, ABCC4 / Fold change vs veh, ABCC4 / RFU, LOC101060439 /// RAP1B / Fold change vs veh, LOC101060439 /// RAP1B / RFU, RFX7 / Fold change vs veh, RFX7 / RFU, GTPBP10 / Fold change vs veh, GTPBP10 / RFU, CNEP1R1 / Fold change vs veh, CNEP1R1 / RFU, BIVM-ERCC5 /// ERCC5 / Fold change vs veh, BIVM-ERCC5 /// ERCC5 / RFU, ILF3 / Fold change vs veh, ILF3 / RFU 11762660_at / Fold change /veh 11762660_at / RFU VCAN (11757783_s_at) / Fold change /veh VCAN (11757783_s_at) / RFU DDX43 (11728927_at) / Fold change /veh DDX43 (11728927_at) / RFU KRT8 (11758188_x_at) / Fold change /veh KRT8 (11758188_x_at) / RFU NKD1 (11759106_at) / Fold change /veh NKD1 (11759106_at) / RFU SRD5A1 (11742802_a_at) / Fold change /veh SRD5A1 (11742802_a_at) / RFU TPSAB1 /// TPSB2 (11721975_s_at) / Fold change /veh TPSAB1 /// TPSB2 (11721975_s_at) / RFU GSTM3 (11746129_a_at) / Fold change /veh GSTM3 (11746129_a_at) / RFU IL23R (11737362_x_at) / Fold change /veh IL23R (11737362_x_at) / RFU TMEM51 (11727254_a_at) / Fold change /veh TMEM51 (11727254_a_at) / RFU PIWIL2 (11732686_x_at) / Fold change /veh PIWIL2 (11732686_x_at) / RFU ORM1 (11744905_x_at) / Fold change /veh ORM1 (11744905_x_at) / RFU CCDC152 (11743942_at) / Fold change /veh CCDC152 (11743942_at) / RFU ECM1 (11717891_a_at) / Fold change /veh ECM1 (11717891_a_at) / RFU IL23R (11748794_a_at) / Fold change /veh IL23R (11748794_a_at) / RFU TNFAIP8L3 (11732012_x_at) / Fold change /veh TNFAIP8L3 (11732012_x_at) / RFU MBOAT4 (11741988_at) / Fold change /veh MBOAT4 (11741988_at) / RFU 11764193_at / Fold change /veh 11764193_at / RFU TMEM53 (11763286_at) / Fold change /veh TMEM53 (11763286_at) / RFU MAGEB2 (11727129_at) / Fold change /veh MAGEB2 (11727129_at) / RFU TMEM200A (11744735_a_at) / Fold change /veh TMEM200A (11744735_a_at) / RFU CCDC152 (11751479_a_at) / Fold change /veh CCDC152 (11751479_a_at) / RFU FAM211A (11726209_a_at) / Fold change /veh FAM211A (11726209_a_at) / RFU RGS16 (11746705_a_at) / Fold change /veh RGS16 (11746705_a_at) / RFU VCAN (11755009_s_at) / Fold change /veh VCAN (11755009_s_at) / RFU RHOB (11743442_s_at) / Fold change /veh RHOB (11743442_s_at) / RFU RGS16 (11720943_a_at) / Fold change /veh RGS16 (11720943_a_at) / RFU RGS16 (11720944_at) / Fold change /veh RGS16 (11720944_at) / RFU, VPS4B / Fold change vs veh, VPS4B / RFU, CREB1 / Fold change vs veh, CREB1 / RFU, DNAJC13 / Fold change vs veh, DNAJC13 / RFU, GNAQ / Fold change vs veh, GNAQ / RFU, CDK5R1 / Fold change vs veh, CDK5R1 / RFU, ZRANB3 / Fold change vs veh, ZRANB3 / RFU, CUL4A / Fold change vs veh, CUL4A / RFU, CCNY / Fold change vs veh, CCNY / RFU, UFL1 / Fold change vs veh, UFL1 / RFU, COG3 / Fold change vs veh, COG3 / RFU, DIAPH2 / Fold change vs veh, DIAPH2 / RFU, SKA2 / Fold change vs veh, SKA2 / RFU, AFF3 / Fold change vs veh, AFF3 / RFU, LMF1 / Fold change vs veh, LMF1 / RFU, IPO11 / Fold change vs veh, IPO11 / RFU, DFFB / Fold change vs veh, DFFB / RFU, FOXP1 / Fold change vs veh, FOXP1 / RFU, CARD8 / Fold change vs veh, CARD8 / RFU, STRN3 / Fold change vs veh, STRN3 / RFU, ADK / Fold change vs veh, ADK / RFU, RASSF2 / Fold change vs veh, RASSF2 / RFU, WIPF1 / Fold change vs veh, WIPF1 / RFU, LARP1B / Fold change vs veh, LARP1B / RFU, RASA1 / Fold change vs veh, RASA1 / RFU, RB1 / Fold change vs veh, RB1 / RFU, PPFIA1 / Fold change vs veh, PPFIA1 / RFU, MAT2A / Fold change vs veh, MAT2A / RFU, CCT5 / Fold change vs veh, CCT5 / RFU, WDR92 / Fold change vs veh, WDR92 / RFU, CUX1 / Fold change vs veh, CUX1 / RFU, TTC7A / Fold change vs veh, TTC7A / RFU, TMEM135 / Fold change vs veh, TMEM135 / RFU, DEPTOR / Fold change vs veh, DEPTOR / RFU, CPM / Fold change vs veh, CPM / RFU, DNAJB6 / Fold change vs veh, DNAJB6 / RFU, CACNA2D3 / Fold change vs veh, CACNA2D3 / RFU, DTX4 / Fold change vs veh, DTX4 / RFU, TFCP2 / Fold change vs veh, TFCP2 / RFU, GMCL1 /// GMCL1P1 / Fold change vs veh, GMCL1 /// GMCL1P1 / RFU, AEBP2 / Fold change vs veh, AEBP2 / RFU, SNHG1 /// SNORD22 /// SNORD25 /// SNORD26 /// SNORD27 /// SNORD28 /// SNORD29 /// SNORD31 / Fold change vs veh, SNHG1 /// SNORD22 /// SNORD25 /// SNORD26 /// SNORD27 /// SNORD28 /// SNORD29 /// SNORD31 / Fold change (Aza/veh), C12orf56 (ProbeSet 11735607_a_at) / Fold change (ACY-1035/veh), C12orf56 (ProbeSet 11735607_a_at) / Fold change (Aza/veh), FGFR1OP (ProbeSet 11751329_s_at) / Fold change (ACY-1035/veh), FGFR1OP (ProbeSet 11751329_s_at) / Fold change (Aza/veh), VPS36 (ProbeSet 11739960_a_at) / Fold change (ACY-1035/veh), VPS36 (ProbeSet 11739960_a_at) / RFU SYPL1 (11715823_x_at) / Fold change /veh SYPL1 (11715823_x_at) / RFU IGFBP7 (11715501_s_at) / Fold change /veh IGFBP7 (11715501_s_at) / RFU REEP3 (11722064_at) / Fold change /veh REEP3 (11722064_at) / RFU IGLL1 (11728026_x_at) / Fold change /veh IGLL1 (11728026_x_at): dose or concentration left out as unconfirmed
Settings: MV-4-11 cells, 48 hours

Nc1ncn([C@@H]2O[C@H](CO)[C@@H](O)[C@H]2O)c(=O)n1 [azacitidine]
RFU NPB (11741838_a_at): 80.08 RFU
